As a reminder, the EC50 is the midpoint of the concentration-response curve.

The source made the active and inactive calls.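 How the source made its calls: active means compounds whose mean EC50, the dose giving half the maximal reporter activation, is at or below a set limit; inactive means the rest.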

For 96 compounds, EC50 results are on record in PubChem BioAssay AID489024 (Sanford-Burnham Center for Chemical Genomics, 2010).

This experiment concerns the target CHO-CHOP luciferase reporter, UPR activation, luminescence. The experiment can be described thus: activators of PERK-eIF2a-CHOP UPR arm, confirmation, CHO-CHOP cells, luciferase luminescence (AID 489024).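 Further: compounds added alone to reporter cells with no tunicamycin stress co-treatment.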
`COc1ccccc1N1CCN(Cc2ccc(O)c3ncccc23)CC1`: the EC50 is 14.7 µM.

Consider `C=C(C(=O)c1ccccc1)C(C(=C)C(=O)c1ccccc1)c1ccc(OC)cc1`, for which the EC50 is 15.3 µM.

Regarding `CSc1nnc(NC(=O)c2nc(S(=O)(=O)Cc3ccc(C)cc3)ncc2Cl)s1`, the 50% effective concentration (EC50) is 13.6 µM.

As for `COc1ccc(-c2cc(=O)oc3c(C)c(OC(=O)c4cccs4)ccc23)cc1`, the EC50 entry was “inactive”.

Take `O=C(N/N=C/c1cccc([N+](=O)[O-])c1)c1cc2c(ccc3ccccc32)o1`: the EC50 is > 80 µM (inactive).

Turning to `Cc1ccc(Nc2nc(-c3ccc(O)c(O)c3)cs2)nc1`, the EC50 was 1.56 µM.

With `CCc1ccc2nc(N(CCCN(C)C)C(=O)c3ccc(S(=O)(=O)N(C)C4CCCCC4)cc3)sc2c1`, the EC50 is 10.6 µM.

`Cc1ccc(S(=O)(=O)Nc2cccc3cccnc23)cc1`: the EC50 is 4.41 µM.

Regarding `O=C(CN1CCN(c2ccccc2F)CC1)c1ccc(O)c(O)c1`, the EC50 result was “inactive”.

On to `Cc1ccc(-c2nnc(-c3ccc(NC(=O)c4cccs4)cc3)o2)cc1`, for which the EC50 is 16 µM.

For `CCNc1ccccc1CP(=O)(c1ccccc1)c1ccccc1O` (stereo unspecified), the EC50 is 15 µM.

Regarding `C/C(=N\NC(=O)c1cccc2ccccc12)c1ccccn1`, the EC50 was 3.22 µM.

Turning to `CCN(CC)c1ccc(/C=C2\C(=O)N(c3nnc(C)c(=O)[nH]3)N=C2C)cc1`, the EC50 entry is “inactive”.

Turning to `COc1ccccc1N=Cc1c(O)c2ccccc2oc1=O`, the EC50 is 12.5 µM.

In the case of `CCc1nnc(NC(=O)CSc2nc(-c3ccccc3)cc(-c3ccc(OC)cc3)c2C#N)s1`, the EC50 was 13 µM.

For `C=CCN=c1scc(C)n1/N=C/c1ccc(O)c(O)c1`, the concentration giving a half-maximal response (EC50) was 3.01 µM.

As to `OCCNc1nc(Nc2ccc(Cl)c(Cl)c2)nc2ccccc12`, the 50% effective concentration (EC50) is 11.7 µM.

As to `COc1ccc(N2C(=O)/C(=C/C=C/c3ccccc3[N+](=O)[O-])C(=O)NC2=S)cc1`, the EC50 is > 80 µM (inactive).

For `COc1ccc(Cn2c(SCc3ccc(C)cc3)nc3cc(OC)c(OC)cc3c2=N)cc1Cl`, the EC50 was 14 µM.

Take `CCCN(CCC)C(=O)c1cc([N+](=O)[O-])cc2c1-c1ccc([N+](=O)[O-])cc1C2=C(C#N)C#N`: the EC50 is 13.3 µM.

For the compound `O=C(/C=C/c1ccc(O)c(O)c1)c1ccccc1O`, the EC50 was 4.64 µM.

In the case of `O=C(Cn1ncc(Cl)c(Cl)c1=O)c1ccc2c(c1)OCCO2`, the EC50 is 13.4 µM.

Take `CCOc1cc(/C=C2/C(=N)N3C=CSC3=NC2=O)ccc1OCCCOc1ccccc1C`: the EC50 result is “inactive”.

In the case of `CC(C)N=c1scc(-c2ccco2)n1/N=C/c1ccc(O)c(O)c1`, the EC50 is 1.1 µM.

On to `COc1ccccc1N1CCN(/N=C/c2ccc(O)c(O)c2)CC1`, for which the EC50 is 2.36 µM.

Consider `COc1cc(SC#N)ccc1N=Cc1c(C)[nH]n(-c2ccc(Cl)cc2)c1=O`, for which the EC50 was 11.9 µM.

Consider `Cc1ccccc1NC(=O)c1ccc(N/N=C/c2ccccc2O)c([N+](=O)[O-])c1`, for which the EC50 was 9.06 µM.

With `CCC(=O)Nc1ccc(C(=O)Cn2ncc(Cl)c(Cl)c2=O)cc1`, the EC50 was 13.7 µM.

With `CC(=O)c1cccc(N=Cc2c(O)c3ccccc3oc2=O)c1`, the EC50 is 9.66 µM.

As to `O=C(O)CC1CCC(=C(Cl)Cl)C1` (stereo unspecified), the EC50 was > 80 µM (inactive).

For the compound `CN1C(=O)/C(=C/c2cccn2-c2ccc3ccccc3c2)C(=O)NC1=S`, the half-maximal effective concentration (EC50) is 11.7 µM.

As to `Nc1cccc(-c2nc3cc(S(=O)(=O)c4ccc5oc(-c6cccc(N)c6)nc5c4)ccc3o2)c1`, the EC50 result is “inactive”.

Turning to `CCOc1ccc(NC(=S)NC(=O)/C=C/c2ccc(OC)c(OC)c2)c([N+](=O)[O-])c1`, the EC50 is > 80 µM (inactive).

For the compound `O=[N+]([O-])c1cc(O)c2ncccc2c1`, the EC50 was 13.3 µM.

In the case of `Cc1cccc(CSc2cccc3cccnc23)c1`, the EC50 was 7.72 µM.

For the compound `O=S(=O)(Nc1cccc2cccnc12)c1ccccc1`, the EC50 is 4.18 µM.

As to `O=S(=O)(c1ccc(Cl)cc1)c1snnc1-c1ccccc1`, the EC50 is 11.1 µM.

Consider `N#C/C(=C\c1ccc([N+](=O)[O-])o1)C(=O)Nc1ccc(F)cc1`, for which the concentration for a half-maximal effect (EC50) was 17.1 µM.

Take `Cc1ccc(-c2nc(NC(=O)c3nn(C)cc3[N+](=O)[O-])sc2C)cc1C`: the EC50 was 6.33 µM.

Consider `Cc1ccc(S(=O)(=O)N(C(=O)c2ccncc2)c2ccc(OC(=O)c3ccncc3)c3ccccc23)c(C)c1`, for which the EC50 was 16.7 µM.

On to `CCOC(=O)/C=c1\s/c(=C\c2ccc3cc(OC)ccc3c2)c(=O)n1CC(=O)NCC1CCCO1` (stereo unspecified), for which the EC50 is 10.7 µM.

`CCOC(=O)c1c(C)oc2c1c(C(c1ccccc1)N1CCOCC1)c(O)c1ccccc12` (stereo unspecified): the EC50 was 18 µM.

`CC(C)c1nnc(NC(=O)CCS(=O)(=O)c2nc(-c3cccs3)cc(C(F)(F)F)n2)s1`: the 50% effective concentration (EC50) is 13.5 µM.

As to `CN1CSC(=S)N(C)C1`, the EC50 was > 80 µM (inactive).

`Cc1cc(C)cc(NC(=O)/C(C#N)=C/c2cn(CC(=O)NCc3ccco3)c3ccccc23)c1`: the EC50 is 7.54 µM.

Regarding `Cc1cc(O)c(-c2cc(O)c(C)cc2O)cc1O`, the EC50 is > 80 µM (inactive).

As for `CC(=O)c1cccc(NC(=O)CSc2ncc(C(=O)Nc3ccccc3)c(=O)n2C)c1`, the concentration for a half-maximal effect (EC50) was 7.28 µM.

With `Cc1ccc(C(=O)C(C(=O)/C=C/c2ccccc2)=C2SCCCS2)cc1`, the EC50 is 14.6 µM.

On to `Cc1cc(NC(=O)CCS(=O)(=O)c2nc(-c3ccccc3)cc(C(F)(F)F)n2)no1`, for which the EC50 is 7.4 µM.

On to `O=C(CSc1ccc2ccccc2c1)NCCc1ccc(O)c(O)c1`, for which the EC50 is 8.44 µM.

In the case of `COCCN=c1scc(-c2cccs2)n1/N=C/c1ccc(O)c(O)c1O`, the EC50 entry was “inactive”.

With `COc1ccc(CCN2CCC(Nc3nc4ccccc4n3Cc3ccc(F)cc3)CC2)cc1`, the EC50 is 9.69 µM.

For the compound `CCCCCCCC(=O)Nc1ccc(C(=O)N/N=C/c2cccc([N+](=O)[O-])c2)cc1`, the EC50 result is “inactive”.

`CCc1ccc(-n2c(SCC(=O)c3ccc4c(c3)NC(=O)CO4)nc3ccccc3c2=O)cc1`: the EC50 is 12.9 µM.

As for `Cc1cc(SCC(=O)N/N=C/c2ccc(O)c(O)c2)nc2ccccc12`, the EC50 is 18.3 µM.

For the compound `CC(C)(C)c1ccc(/C=C(\c2nc3ccccc3[nH]2)S(=O)(=O)c2ccccc2)cc1`, the EC50 is 7.17 µM.

Consider `COc1ccc(N=Cc2c(O)c3ccccc3oc2=O)cc1`, for which the EC50 was 8.64 µM.

In the case of `CCCCOc1ccc(N2C(=O)CC(N(O)c3ccccc3)C2=O)cc1` (stereo unspecified), the EC50 was 7.25 µM.

As for `Cc1ccc(Sc2c([N+](=O)[O-])c(=O)n(C)c3ccccc23)cc1`, the EC50 is > 80 µM (inactive).

For the compound `COC(=O)c1cc(=O)n(CCc2ccc(OC)c(OC)c2)c(=Nc2ccc(F)c(Cl)c2)s1`, the EC50 was 16.9 µM.

For `CN1CCN(c2ccc(NC(=O)c3ccc([N+](=O)[O-])o3)cc2Cl)CC1`, the EC50 is 0.42 µM.

In the case of `CCSC1(SCC)N=C(N)C2(C#N)C(c3ccc(OC)c(OC)c3OC)C12C#N` (stereo unspecified), the EC50 is 14.7 µM.

`CCc1ccc(NC(=O)C(CC)Sc2nc3cc4c(cc3c(=O)n2Cc2ccco2)OCO4)cc1` (stereo unspecified): the EC50 is 14.9 µM.

Regarding `Cn1nnnc1Sc1ncnc2scc(-c3ccc([N+](=O)[O-])cc3)c12`, the EC50 is 12.3 µM.

With `S=C(Nc1ccccc1)Nc1nccs1`, the EC50 is 17.5 µM.

Consider `CCOC(=O)Cc1csc(/N=C/c2c(O)n(-c3ccc(C)c(C)c3)c(=O)c3ccccc23)n1`, for which the EC50 is 10.7 µM.

`C/C(=N\NC(=O)c1ccc(Cl)c(Cl)c1)c1ccccn1`: the EC50 is 3.26 µM.

`CCc1cccc2c(C(=O)CCl)c[nH]c12`: the EC50 was 15.7 µM.

In the case of `O=C(N/N=C\c1cc2c(cc1Cl)OCO2)c1ccc(Br)s1`, the EC50 is > 80 µM (inactive).

Take `Fc1ccc(NC(=S)Nc2nccs2)cc1`: the EC50 result was “inactive”.

With `COc1ccccc1-c1cc(C(F)(F)F)nc(S(C)(=O)=O)n1`, the EC50 was 9.21 µM.

Consider `COc1ccc(C(=O)N/N=C(\C)c2ccccn2)cc1OC`, for which the EC50 is 2.82 µM.

Consider `CCOc1ccc(N2C(=O)/C(=C\c3cccs3)C(=O)NC2=S)cc1`, for which the EC50 is 8.68 µM.

For `COc1cc(NC(=O)c2cncc(-c3ccc(C#N)cc3)c2)cc(C(=O)Nc2cccc(C(F)(F)F)c2)c1`, the EC50 result was “inactive”.

Consider `S=C(Nc1ccccn1)c1ccccn1`, for which the concentration for a half-maximal effect (EC50) was 10.4 µM.

Turning to `COc1ccc(/C=N/Nc2cc(C)nc(-n3nc(C)cc3C)n2)cc1`, the EC50 is 10.4 µM.

As for `O=C(COc1ccc2ccccc2c1)N1CCN(Cc2c[nH]c3ccccc23)CC1`, the EC50 is 13.6 µM.

As for `COc1ccccc1N=c1oc2c(OC)cccc2cc1C(=O)NCc1ccco1`, the EC50 is > 80 µM (inactive).

As for `O=C1NC(=O)N(c2ccccc2)C(=O)/C1=C/C=C/c1ccco1`, the 50% effective concentration (EC50) was 9.82 µM.

As to `CCOc1ccc(-n2c(C)cc(C(=O)CCl)c2C)cc1`, the EC50 is 6.97 µM.

Take `COc1ccccc1/C=N\Nc1cc(C)nc(-n2nc(C)cc2C)n1`: the EC50 was 13.9 µM.

Turning to `CC(C)(C)C1=CC(=O)C(=O)C(C(C)(C)C)=C1`, the EC50 is 7.59 µM.

Regarding `CC(=O)Nc1ccc(N=Cc2c(O)c(C(=O)Nc3ccccc3)cc3ccccc23)cc1`, the EC50 result was “inactive”.

Turning to `COc1ccc(-n2c(C)cc(C(=O)CCl)c2C)cc1`, the concentration giving a half-maximal response (EC50) is 7.13 µM.

`O=C(Nc1nc(-c2ccccn2)cs1)c1ccc(Cl)s1`: the EC50 was 6.11 µM.

Take `N=c1c(-c2nc3ccccc3[nH]2)cc(C(=O)c2ccco2)nn1-c1ccccc1`: the concentration for a half-maximal effect (EC50) was 15.2 µM.

Turning to `COc1ccc(-c2cc(C(F)(F)F)nc(S(C)(=O)=O)n2)cc1OC`, the EC50 is 9.31 µM.

With `COc1ccccc1C(=O)NC(=S)NNC(=O)c1sc2ccccc2c1Cl`, the EC50 entry was “inactive”.

For the compound `FC(F)(F)c1nnc2c(Sc3ccc(Cl)cc3)nc3ccccc3n12`, the 50% effective concentration (EC50) is 4.12 µM.

In the case of `O=C1NC(=O)N(CCc2ccc(F)cc2)C(=O)/C1=C/C=C/c1ccccc1`, the EC50 is 4.74 µM.

With `N#C/C(=C\c1ccc(OCc2ccccc2)cc1)C(=O)Nc1nc2c(s1)CCN(Cc1ccccc1)C2`, the EC50 result is “inactive”.

As to `CN=c1scc(-c2ccco2)n1/N=C/c1ccc(O)c(O)c1`, the EC50 was 1.23 µM.

For the compound `NC(N)=N/N=C/c1ccc(N(c2ccccc2)c2ccccc2)cc1`, the EC50 was > 80 µM (inactive).

Take `Cc1cccnc1Nc1nc(-c2ccccn2)cs1`: the EC50 is 0.64 µM.

Consider `C/C(=C\c1ccc(N(C)C)cc1)[N+](=O)[O-]`, for which the EC50 was 9.76 µM.

Turning to `CCn1cc(C(=O)NC(=S)Nc2sc3c(c2C(=O)OC)CCCCCC3)cn1`, the EC50 entry is “inactive”.
